The results in this text go back to PubChem BioAssay AID2060348 (Molecular Pharmacology Branch, DTP, NCI, 2025).

What is called viability, T/C is the result in the treated group divided by that in the control group, in per cent. By IC50 is commonly meant the concentration needed to halve the response being measured.

Several values for one entry are separate records, joined by “and”; a condition that tells them apart may be missing. Equal values may be shown once. Where only a bound is given, the exact number is not on record here.

In this experiment the test system is 885724-159-R-J1-PDC spheroids viability. Kind of experiment: Anticancer human tumor 885724-159-R-J1-PDC patient-derived pancreatic adenocarcinoma cell line growth inhibition [TAK]. The following applies: spheroids with HUVEC and MSC; for viability, T/C: stronger effect = lower value; for IC50: curve of compound. An excerpt: Combinatorial screen of targeted agents with TAK-243 and ipatasertib in multi-cell type tumor spheroids
A high-throughput screen of multi-cell type tumor spheroids was designed to identify active combinations of targeted small molecules and TAK-243 or ipatasertib. Complex spheroids include a stromal component modeled by human endothelial cells (HUVEC) and fibroblasts modeled by human mesenchymal stem cells (MSCs). The concentration ranges selected for each drug and investigational agent were based upon clinically achievable concentrations if the clinical Cmax of the agent was known.
Compounds. The drugs and investigational agents: TAK-243 (785004), ipatasertib (767898), everolimus (733504), selumetinib (741078), bortezomib (756655), trametinib (758246), ixazomib (758254), vemurafenib (761431), dabrafenib (764134), sapanisertib (764658), alpelisib (765974), and copanlisib (816437), were obtained from the National Cancer Institute (NCI) Developmental Therapeutics Program Chemical Repository. The FDA-approved anticancer drug set is available from the NCI Developmental Therapeutics Program. […] The stock solutions were prepared in dimethyl sulfoxide (DMSO, Sigma-Aldrich, St. Louis, MO, cat. D2650) at 800-fold the tested concentration and stored at -70 degrees C prior to their use. All drugs and investigational agents were tested over a range starting from a high concentration at or near the clinical Cmax and decreasing in half-log increments. If the clinical Cmax for an agent had not been determined, the highest concentration tested was 10 microM.
NCI60 Cell Culture. NCI60 cell lines were obtained from the NCI Developmental Therapeutics Program Tumor Repository. For each lot of cells, the Repository performed Applied Biosystems AmpFLSTR Identifiler testing with PCR amplification to confirm consistency with the published Identifier STR profile for each cell line. Cells were kept in continuous culture for no more than 20 passages. The optimal seeding densities for each of the cell lines at each time point assessed were determined prior to performing the concentration response studies. Briefly, the NCI60 human tumor lines were grown as monolayers in RPMI 1640 medium supplemented with 10% FBS and 2 mmol/L L-glutamine.
An additional 2 lines were from the NCI60 cell line panel including melanomas, MALME-3M and SK-MEL-2. Pooled donor human umbilical vein endothelial cells (HUVEC, Lonza, cat. CC-2519) and human mesenchymal stem cells (hMSC, Lonza, cat. PT-2501) were purchased from Lonza (Walkersville, MD).
PDMR cell lines were grown in complete medium (DC medium): Dulbecco's modified Eagle's medium (DMEM)/F12 supplemented with 5% fetal bovine serum (FBS), 2 mM L-glutamine, 100 U/mL penicillin and 100 µg/ml streptomycin, 0.4 µg/ml hydrocortisone, 10 ng/ml epidermal growth factor (EGF) recombinant human protein, 24 µg/mL adenine, and 0.1 mg/mL primocin. During culture from frozen stock vials, PDMR cells were cultured in the same medium containing 10 µM Y-27632 (see Table 3). The PDCs were cultured in complete DMEM/F12 media without 10 microM Y-27632 dihydrochloride for at least two passages prior to the screen. The pooled donor HUVEC and hMSC were cultured in endothelial cell growth medium 2 (PromoCell, Heidelberg, Germany, cat. C-22011) and mesenchymal stem cell growth medium 2 (PromoCell, cat. C-28009), respectively. For all experiments, HUVEC and hMSC were used at passages </=5.
For the pre-screen, cell seeding densities were determined from a titration spanning the range from 5,000 to 313 cells per well. The mct-spheroids including 60% malignant cells, 25% HUVEC and 15% MSC dispensed as a mixture into U-bottom Ultra-Low Attachment 384-well plates (Corning, NY)
High-throughput Drug Combination Screening.
Prior to their inoculation into 384-well plates, malignant cells, HUVEC, and hMSC were removed from T flasks using TrypLE express (Thermo Fisher Scientific, cat. 12605036) and harvested by centrifugation for 5 min at 233 x g. […]
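Also: spheroids exposed to drugs for seven days.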

Turning to `CC(=O)Nc1cccc(-n2c(=O)n(C3CC3)c(=O)c3c(Nc4ccc(I)cc4F)n(C)c(=O)c(C)c32)c1`, the IC50 was 1.38 nM and 1.18 nM. In addition, the viability, T/C (compound 94.9 pM) is 89.3% and 117%. In addition, the viability, T/C (compound 0.0003 µM) was 86.7% and 71.2%. For the same compound, the viability, T/C (compound 0.000949 µM) was 53.9% and 55.8%. The viability, T/C (compound 0.003 µM) was 37.1% and 40.6%. Further, the viability, T/C (compound 0.00949 µM) was 26.4% and 30.2%. In addition, the viability, T/C (compound 0.03 µM) was 20.4%.

As to `CC(C)(C)c1nc(-c2cccc(NS(=O)(=O)c3c(F)cccc3F)c2F)c(-c2ccnc(N)n2)s1`, the IC50 is above 10000 nM. The viability, T/C (compound 0.0316 µM) is 179% and 172%. Further, the viability, T/C (compound 0.1 µM) is 262% and 233%. Besides, the viability, T/C (compound 0.316 µM) was 321% and 254%. Where the note is “compound 1 µM”, the viability, T/C is 332% and 269%. In addition, the viability, T/C (compound 3.16 µM) was 308% and 241%. Further, for the setting “compound 10 µM”, the viability, T/C was 200% and 176%.

Take `CC(C)CC(NC(=O)C(Cc1ccccc1)NC(=O)c1cnccn1)B(O)O` (stereo not drawn): the IC50 is 4.63 nM and 4.18 nM. For the setting “compound 31.6 pM”, the viability, T/C was 114% and 102%. In addition, where the note is “compound 0.0001 µM”, the viability, T/C was 105% and 100%. The viability, T/C (compound 0.000316 µM) is 104% and 93.8%. In addition, under “compound 0.001 µM”, the viability, T/C is 99.3% and 87.3%. The viability, T/C (compound 0.00316 µM) is 74.5% and 67.2%. For the same compound, the viability, T/C (compound 0.01 µM) is 1.18% and 1.87%.

For `CC(C)CC(NC(=O)CNC(=O)c1cc(Cl)ccc1Cl)B1OC(=O)CC(CC(=O)O)(C(=O)O)O1` (stereo not drawn), the IC50 is 19.1 nM and 18.8 nM. In addition, the viability, T/C (compound 0.000316 µM) was 98.6% and 104%. Besides, under “compound 0.001 µM”, the viability, T/C was 101% and 96.8%. Further, where the note is “compound 0.00316 µM”, the viability, T/C was 99.5% and 103%. The viability, T/C (compound 0.01 µM) is 89.3% and 91.4%. Also, the viability, T/C (compound 0.0316 µM) is 19.3% and 15.8%. Further, the viability, T/C (compound 0.1 µM) was 1.47% and 1.1%.

`CC(C)NCC(C(=O)N1CCN(c2ncnc3c2C(C)CC3O)CC1)c1ccc(Cl)cc1` (stereo not drawn): the viability, T/C (compound 0.3 µM) was 64.1% [middle of 10 runs]; the viability, T/C (compound 0.949 µM) is 60.5% [middle of 10 runs]; the viability, T/C (compound 3 µM) was 55.2% [middle of 10 runs]; the viability, T/C (compound 9.49 µM) is 47.5% [middle of 10 runs]; the viability, T/C (compound 30 µM) was 32.8% [middle of 10 runs].

Turning to `CC(C)n1nc(-c2ccc3oc(N)nc3c2)c2c(N)ncnc21`, the IC50 was 52.6 nM and 52.9 nM. For the same compound, the viability, T/C (compound 0.000316 µM) is 104% and 108%. For the setting “compound 0.001 µM”, the viability, T/C is 103% and 95.1%. In addition, the viability, T/C (compound 0.00316 µM) is 93.3% and 83.8%. Also, the viability, T/C (compound 0.01 µM) was 67.5% and 70.2%. For the same compound, the viability, T/C (compound 0.0316 µM) is 54.2% and 51.1%. In addition, the viability, T/C (compound 0.1 µM) is 46.1% and 46%.

In the case of `COC1CC2CCC(C)C(O)(O2)C(=O)C(=O)N2CCCCC2C(=O)OC(C(C)CC2CCC(OCCO)C(OC)C2)CC(=O)C(C)C=C(C)C(O)C(OC)C(=O)C(C)CC(C)C=CC=CC=C1C` (stereo not drawn), the IC50 is above 100 nM. Besides, the viability, T/C (compound 0.000316 µM) is 93.8% and 110%. In addition, where the note is “compound 0.001 µM”, the viability, T/C is 91.7% and 92%. Besides, the viability, T/C (compound 0.00316 µM) is 79.7% and 77%. The viability, T/C (compound 0.01 µM) was 69.8% and 72.2%. Further, the viability, T/C (compound 0.0316 µM) was 70.2% and 70.8%. Further, under “compound 0.1 µM”, the viability, T/C was 67.6% and 62.2%.

With `COc1c(OCCCN2CCOCC2)ccc2c3n(c(=NC(=O)c4cnc(N)nc4)nc12)CCN3`, the IC50 is 26.7 nM and 23.3 nM. The viability, T/C (compound 0.00316 µM) is 92.1% and 84.8%. In addition, the viability, T/C (compound 0.01 µM) was 69.9% and 64.1%. Besides, the viability, T/C (compound 0.0316 µM) was 47.1% and 47.6%. For the same compound, the viability, T/C (compound 0.1 µM) was 27.9% and 22.6%. For the same compound, the viability, T/C (compound 0.316 µM) is 14% and 13.8%. Moreover, where the note is “compound 1 µM”, the viability, T/C was 12.1% and 12%.

For `Cc1nc(NC(=O)N2CCCC2C(N)=O)sc1-c1ccnc(C(C)(C)C(F)(F)F)c1` (stereo not drawn), the IC50 was 1590 nM and 1990 nM. Also, the viability, T/C (compound 0.0316 µM) is 100% and 108%. Moreover, the viability, T/C (compound 0.1 µM) was 91.1% and 88.8%. For the same compound, the viability, T/C (compound 0.316 µM) is 72.9% and 70.5%. Also, under “compound 1 µM”, the viability, T/C is 55.2% and 64.1%. For the same compound, the viability, T/C (compound 3.16 µM) is 42.3% and 43.4%. The viability, T/C (compound 10 µM) was 26.8% and 29.2%.

For `Cn1cnc2c(F)c(Nc3ccc(Br)cc3Cl)c(C(=O)NOCCO)cc21`, the IC50 is 40.9 nM. Moreover, the viability, T/C (compound 0.00949 µM) is 70.7% and 70.3%. For the same compound, the viability, T/C (compound 0.03 µM) is 53.1% and 54.5%. For the setting “compound 0.0949 µM”, the viability, T/C was 38.9% and 38.3%. The viability, T/C (compound 0.3 µM) was 34.6% and 32.9%. Also, the viability, T/C (compound 0.949 µM) was 28.6% and 27.2%. For the same compound, the viability, T/C (compound 3 µM) was 21.2% and 21.8%.
